Measured values: patent US7588899B2, “Fluorescent probes for use in protein kinase inhibitor binding assay” (Boehringer Ingelheim Pharmaceuticals, Inc., priority 2003, dated 2009)

Molecular target: STK12 kinase domain (Homo sapiens, UniProt Q96GD4)
Experiment: Fluorescence polarization titration of the fluorescent probe with STK12 kinase domain
Assay type: binding
Settings: 25 nM probe, STK12 kinase domain serially diluted
Procedure: Step one: Characterization of the Fluorescent Probe
An absorbance spectrum is first evaluated for each probe. The excitation and emission spectra are then measured in order to identify the appropriate excitation and emission wavelengths for detecting the probe. An example of such a probe is 6-(2,7-difluoro-6-hydroxy-3-oxo-3H-xanthen-9-yl)-N-[6-(5-nitro-2-phenylamino-pyrimidin-4-ylamino)-hexyl]-isophthalamic acid where the excitation and emission maxima are 496 nm and 524 nm, respectively. These fluorescence spectra were measured on an SLM-8100 fluorimeter with the probe dissolved in an assay buffer (50 mM HEPES, pH 7.4, 100 mM NaCl, 5 mM MgCl2 5 % Glycerol, 200 mM TCEP and 0.01% (w/v) CHAPS, 2 % DMSO).
The affinity of the probe for STK12 kinase domain was then determined in a titration experiment. The polarization assay is carried out in Corning® Costar® NBS 96-well solid black flat bottom plates. In this example, an LJL Analyst® assay detection system was used with filters appropriate for the excitation/emission characteristics of the fluorescent probe. STK12 kinase domain was serially diluted into wells containing 25 nM probe to cover a broad concentration range across the plate. In addition, several wells contain either probe alone or probe with the highest concentration of STK12 kinase domain. This is done in order to calculate the Qb/Qf ratio for the probe/kinase domain pair. […]

Sequence of STK12 kinase domain (Q96GD4 77-327 limits assumed): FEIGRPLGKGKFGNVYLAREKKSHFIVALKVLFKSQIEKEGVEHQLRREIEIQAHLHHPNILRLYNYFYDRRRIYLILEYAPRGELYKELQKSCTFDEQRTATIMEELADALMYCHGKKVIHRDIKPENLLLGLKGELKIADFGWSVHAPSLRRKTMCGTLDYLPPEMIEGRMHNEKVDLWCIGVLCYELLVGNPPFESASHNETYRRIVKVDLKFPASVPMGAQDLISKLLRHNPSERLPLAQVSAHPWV

O=C(NCCCCCCNc1nc(Nc2ccccc2)ncc1[N+](=O)[O-])c1ccc(-c2c3cc(F)c(=O)cc-3oc3cc(O)c(F)cc23)c(C(=O)O)c1 [Compound G, 6-(2,7-difluoro-6-hydroxy-3-oxo-3H-xanthen-9-yl)-N-[6-(5-nitro-2-phenylamino-pyrimidin-4-ylamino)-hexyl]-isophthalamic acid]
binding of fluorescent probe to STK12 kinase domain: binds to the active site of STK12 kinase domain
